# According to patent US20240390464A1, “Treatment of Adults With Overweight or Obesity With or Without Weight-Related Comorbidities” (Carmot Therapeutics Inc., priority 2023, published 2024):
# “Also recorded” adds a separate entry of the source. Marks after values point to notes of the source that are not given here. Numbered stars: 1 amine (or outer) side, 2 acyl side, 3 side chain; on linkers, the order of the positions; unused ones are H or OH. Square brackets hold non-standard residues; d marks the D form. Side chains are listed from the residue outwards. Peptide text beside a SMILES is read from it. * marks the point of attachment. Isobutyryl(2-(3-CN-5-F-Ph)) = CC(C)(C(=O)*)c1cc(F)cc(C#N)c1; C20 diacid = O=C(O)CCCCCCCCCCCCCCCCCCC(=O)*; γGlu = O=C(O)[C@H](CCC(=O)[*:2])N[*:1]; AEEA = NCCOCCOCC(=O)O; Aib = CC(C)(N)C(=O)O; βAla = NCCC(=O)O
# Test: Phase 1 MAD Cohorts 6-8: safety and tolerability (TEAEs)
# Assay type: in vivo, human
# Settings: for Abdominal Distention / Constipation / Constipation Grade 1 / Constipation Grade 2 / Constipation Grade 3 / Diarrhea / Diarrhea Grade 1 / Diarrhea Grade 2 / Diarrhea Grade 3 / Drug-related TEAEs / Dyspepsia / Eructation / Fatal TEAEs / GI TEAEs (Total) / Gastroesophageal Reflux Disease / Nausea / Nausea Grade 1 / Nausea Grade 3 / Serious TEAEs / Subjects discontinued due to TEAE / Subjects with at least 1 TEAE / TEAE Severity: Grade 1 / TEAE Severity: Grade 2 / TEAE Severity: Grade 3 / Vomiting / Vomiting Grade 1 / Vomiting Grade 2 / Vomiting Grade 3 / Nausea Grade 2: N = 6
# Source text: The primary objective of this study is to determine the safety and tolerability of CT-388 in otherwise healthy overweight and obese adult participants when administered once weekly over 4 consecutive weeks with titrated dosing.
# Safety and tolerability will be assessed by monitoring adverse events (AE) including local injection-site reactions, measuring vital signs and ECGs, and performing clinical laboratory blood and urine analyses.
# • Cohort 6: One weekly dose titrated across 4 consecutive weeks with CT-388 doses of . . . • 5.0 mg at Day 1 • 5.0 mg at Day 8 • 5.0 mg at Day 15 • 7.5 mg at Day 22 • . . . or matched placebo administered subcutaneously in the abdomen • Cohort 7: One weekly dose titrated across 4 consecutive weeks with CT-388 doses of . . . • 5.0 mg at Day 1 • 5.0 mg at Day 8 • 8.0 mg at Day 15 • 12.0 mg at Day 22 • . . . or matched placebo administered subcutaneously in the abdomen • Cohort 8: One weekly dose titrated across 4 consecutive weeks with CT-388 doses of . . . • 5.0 mg at Day 1 • 8.0 mg at Day 8 • 12.0 mg at Day 15 • 12.0 mg at Day 22 • . . . or matched placebo administered subcutaneously in the abdomen (the third dose in Cohort 8 can be lowered to 8.0 mg based on tolerability data from Cohort 7) • Cohort 9: One weekly dose titrated across 4 consecutive weeks with CT-388 doses of . . . • 8.0 mg at Day 1 • 8.0 mg at Day 8 • 12.0 mg at Day 15 • 16.0 mg at Day 22 • . . . or matched placebo administered subcutaneously in the abdomen • Cohort 10: the following two dosing options are proposed in Table 3 below:
# A Phase 1, randomized, placebo-controlled, double-blind study was conducted where single ascending doses (SAD; n=40; 0.5-7.5 mg) and multiple ascending doses (MAD; n=24; 5-12 mg via titration in 3 cohorts) were administered as described in Example 1 to overweight/obese adults.
# The 24 patients in the MAD arm were divided into three cohorts (Cohorts 6, 7, and 8) as shown in Table 5 below (EOT: end of treatment).
# Briefly, participants were randomized 3:1 (6 to CT-388, 2 to placebo, n=8 per cohort). CT-388 was administered once weekly at a dose of 5 mg at baseline in all cohorts and up-titrated up to 12 mg in Cohorts 7 & 8. Oral Glucose Tolerance Test (OGTT) with 75 g glucose solution was performed at baseline (Day −1) and on Day 23. Blood was collected at 15 min prior to OGTT, at OGTT start, and in 30-minute intervals until 120 minutes. Fasting glucose, insulin, C-peptide, and HOMA-IR were measured/calculated at baseline and on Day 23.
smiles,measurement,setting,value
CC[C@H](C)[C@H](NC(=O)[C@H](CC(C)C)NC(=O)[C@H](Cc1c[nH]c2ccccc12)NC(=O)[C@H](CCC(N)=O)NC(=O)[C@@H](NC(=O)[C@H](Cc1ccccc1)NC(=O)[C@H](C)NC(=O)[C@H](CCCCNC(=O)COCCOCCNC(=O)COCCOCCNC(=O)CC[C@H](NC(=O)CCCCCCCCCCCCCCCCCCC(=O)O)C(=O)O)NC(=O)[C@H](CCC(N)=O)NC(=O)[C@H](C)NC(=O)[C@@H](NC(=O)[C@H](CCCCN)NC(=O)[C@H](CC(=O)O)NC(=O)[C@H](CC(C)C)NC(=O)C(C)(C)NC(=O)[C@@H](NC(=O)[C@H](CO)NC(=O)[C@H](Cc1ccc(O)cc1)NC(=O)[C@H](CC(=O)O)NC(=O)[C@H](CO)NC(=O)[C@@H](NC(=O)[C@H](Cc1ccccc1)NC(=O)[C@@H](NC(=O)CNC(=O)[C@H](CCC(=O)O)NC(=O)CCNC(=O)C(C)(C)c1cc(F)cc(C#N)c1)[C@@H](C)O)[C@@H](C)O)[C@@H](C)CC)[C@@H](C)CC)C(C)C)C(=O)N[C@@H](C)C(=O)NCC(=O)NCC(=O)N1CCC[C@H]1C(=O)N[C@@H](CO)C(=O)N[C@@H](CO)C(=O)NCC(=O)N[C@@H](C)C(=O)N1CCC[C@H]1C(=O)N1CCC[C@H]1C(=O)N1CCC[C@H]1C(=O)N[C@@H](CO)C(N)=O [CT-388] ({Isobutyryl(2-(3-CN-5-F-Ph))-βAla}-EGTFTSDYSI[Aib]LDKIAQK([AEEA-AEEA-γGlu-C20 diacid])AFVQWLIAGGPSSGAPPPS-NH2),Abdominal Distention,"Cohort 6, 5/5/5/7.5 mg SC QW",3 n (%)
same,Constipation,"Cohort 6, 5/5/5/7.5 mg SC QW",3 n (%)
same,Constipation Grade 1,"Cohort 6, 5/5/5/7.5 mg SC QW",3 n (%)
same,Constipation Grade 2,"Cohort 6, 5/5/5/7.5 mg SC QW",0 n (%)
same,Constipation Grade 3,"Cohort 6, 5/5/5/7.5 mg SC QW",0 n (%)
same,Diarrhea,"Cohort 6, 5/5/5/7.5 mg SC QW",2 n (%)
same,Diarrhea Grade 1,"Cohort 6, 5/5/5/7.5 mg SC QW",2 n (%)
same,Diarrhea Grade 2,"Cohort 6, 5/5/5/7.5 mg SC QW",0 n (%)
same,Diarrhea Grade 3,"Cohort 6, 5/5/5/7.5 mg SC QW",0 n (%)
same,Drug-related TEAEs,"Cohort 6, 5/5/5/7.5 mg SC QW",33 # Events
same,Dyspepsia,"Cohort 6, 5/5/5/7.5 mg SC QW",1 n (%)
same,Eructation,"Cohort 6, 5/5/5/7.5 mg SC QW",0 n (%)
same,Fatal TEAEs,"Cohort 6, 5/5/5/7.5 mg SC QW",0 # Events
same,GI TEAEs (Total),"Cohort 6, 5/5/5/7.5 mg SC QW",6 n (%)
same,Gastroesophageal Reflux Disease,"Cohort 6, 5/5/5/7.5 mg SC QW",0 n (%)
same,Nausea,"Cohort 6, 5/5/5/7.5 mg SC QW",6 n (%)
same,Nausea Grade 1,"Cohort 6, 5/5/5/7.5 mg SC QW",4 n (%)
same,Nausea Grade 3,"Cohort 6, 5/5/5/7.5 mg SC QW",0 n (%)
same,Serious TEAEs,"Cohort 6, 5/5/5/7.5 mg SC QW",0 # Events
same,Subjects discontinued due to TEAE,"Cohort 6, 5/5/5/7.5 mg SC QW",0 n (%)
same,Subjects with at least 1 TEAE,"Cohort 6, 5/5/5/7.5 mg SC QW",6 (100) n (%)
same,TEAE Severity: Grade 1,"Cohort 6, 5/5/5/7.5 mg SC QW",6 (100) n (%)
same,TEAE Severity: Grade 2,"Cohort 6, 5/5/5/7.5 mg SC QW",6 (100) n (%)
same,TEAE Severity: Grade 3,"Cohort 6, 5/5/5/7.5 mg SC QW",0 n (%)
same,Vomiting,"Cohort 6, 5/5/5/7.5 mg SC QW",5 n (%)
same,Vomiting Grade 1,"Cohort 6, 5/5/5/7.5 mg SC QW",2 n (%)
same,Vomiting Grade 2,"Cohort 6, 5/5/5/7.5 mg SC QW",3 n (%)
same,Vomiting Grade 3,"Cohort 6, 5/5/5/7.5 mg SC QW",0 n (%)
same,Nausea Grade 2,"Cohort 6, 5/5/5/7.5 mg SC QW, same subject experienced both mild and moderate events",4 n (%)
same,Abdominal Distention,"Cohort 7, 5/5/8/12 mg SC QW",0 n (%)
same,Constipation,"Cohort 7, 5/5/8/12 mg SC QW",0 n (%)
same,Constipation Grade 1,"Cohort 7, 5/5/8/12 mg SC QW",0 n (%)
same,Constipation Grade 2,"Cohort 7, 5/5/8/12 mg SC QW",0 n (%)
same,Constipation Grade 3,"Cohort 7, 5/5/8/12 mg SC QW",0 n (%)
same,Diarrhea,"Cohort 7, 5/5/8/12 mg SC QW",2 (33.3) n (%)
same,Diarrhea Grade 1,"Cohort 7, 5/5/8/12 mg SC QW",2 (33.3) n (%)
same,Diarrhea Grade 2,"Cohort 7, 5/5/8/12 mg SC QW",0 n (%)
same,Diarrhea Grade 3,"Cohort 7, 5/5/8/12 mg SC QW",0 n (%)
same,Drug-related TEAEs,"Cohort 7, 5/5/8/12 mg SC QW",18 # Events
same,Dyspepsia,"Cohort 7, 5/5/8/12 mg SC QW",0 n (%)
same,Eructation,"Cohort 7, 5/5/8/12 mg SC QW",2 (33.3) n (%)
same,Fatal TEAEs,"Cohort 7, 5/5/8/12 mg SC QW",0 # Events
same,GI TEAEs (Total),"Cohort 7, 5/5/8/12 mg SC QW",4 (66.7) n (%)
same,Gastroesophageal Reflux Disease,"Cohort 7, 5/5/8/12 mg SC QW",0 n (%)
same,Nausea,"Cohort 7, 5/5/8/12 mg SC QW",1 (16.7) n (%)
same,Nausea Grade 1,"Cohort 7, 5/5/8/12 mg SC QW",1 (16.7) n (%)
same,Nausea Grade 2,"Cohort 7, 5/5/8/12 mg SC QW",0 n (%)
same,Nausea Grade 3,"Cohort 7, 5/5/8/12 mg SC QW",0 n (%)
same,Serious TEAEs,"Cohort 7, 5/5/8/12 mg SC QW",0 # Events
same,Subjects discontinued due to TEAE,"Cohort 7, 5/5/8/12 mg SC QW",0 n (%)
same,Subjects with at least 1 TEAE,"Cohort 7, 5/5/8/12 mg SC QW",6 n (%)
same,TEAE Severity: Grade 1,"Cohort 7, 5/5/8/12 mg SC QW",6 n (%)
same,TEAE Severity: Grade 2,"Cohort 7, 5/5/8/12 mg SC QW",1 n (%)
same,TEAE Severity: Grade 3,"Cohort 7, 5/5/8/12 mg SC QW",0 n (%)
same,Vomiting,"Cohort 7, 5/5/8/12 mg SC QW",2 (33.3) n (%)
same,Vomiting Grade 1,"Cohort 7, 5/5/8/12 mg SC QW",2 (33.3) n (%)
same,Vomiting Grade 2,"Cohort 7, 5/5/8/12 mg SC QW",0 n (%)
same,Vomiting Grade 3,"Cohort 7, 5/5/8/12 mg SC QW",0 n (%)
same,Abdominal Distention,"Cohort 8, 5/8/12/12 mg SC QW",0 n (%)
same,Constipation,"Cohort 8, 5/8/12/12 mg SC QW",1 (16.7) n (%)
same,Constipation Grade 1,"Cohort 8, 5/8/12/12 mg SC QW",1 (16.7) n (%)
same,Constipation Grade 2,"Cohort 8, 5/8/12/12 mg SC QW",0 n (%)
same,Constipation Grade 3,"Cohort 8, 5/8/12/12 mg SC QW",0 n (%)
same,Diarrhea,"Cohort 8, 5/8/12/12 mg SC QW",3 (50.0) n (%)
same,Diarrhea Grade 1,"Cohort 8, 5/8/12/12 mg SC QW",3 (50.0) n (%)
same,Diarrhea Grade 2,"Cohort 8, 5/8/12/12 mg SC QW",0 n (%)
same,Diarrhea Grade 3,"Cohort 8, 5/8/12/12 mg SC QW",0 n (%)
same,Drug-related TEAEs,"Cohort 8, 5/8/12/12 mg SC QW",25 # Events
same,Dyspepsia,"Cohort 8, 5/8/12/12 mg SC QW",0 n (%)
same,Eructation,"Cohort 8, 5/8/12/12 mg SC QW",1 (16.7) n (%)
same,Fatal TEAEs,"Cohort 8, 5/8/12/12 mg SC QW",0 # Events
same,GI TEAEs (Total),"Cohort 8, 5/8/12/12 mg SC QW",5 (83.3) n (%)
same,Gastroesophageal Reflux Disease,"Cohort 8, 5/8/12/12 mg SC QW",2 (33.3) n (%)
same,Nausea,"Cohort 8, 5/8/12/12 mg SC QW",3 (50.0) n (%)
same,Nausea Grade 1,"Cohort 8, 5/8/12/12 mg SC QW",2 (33.3) n (%)
same,Nausea Grade 2,"Cohort 8, 5/8/12/12 mg SC QW",1 (16.7) n (%)
same,Nausea Grade 3,"Cohort 8, 5/8/12/12 mg SC QW",0 n (%)
same,Serious TEAEs,"Cohort 8, 5/8/12/12 mg SC QW",0 # Events
same,Subjects discontinued due to TEAE,"Cohort 8, 5/8/12/12 mg SC QW",0 n (%)
same,Subjects with at least 1 TEAE,"Cohort 8, 5/8/12/12 mg SC QW",6 n (%)
same,TEAE Severity: Grade 1,"Cohort 8, 5/8/12/12 mg SC QW",6 n (%)
same,TEAE Severity: Grade 2,"Cohort 8, 5/8/12/12 mg SC QW",3 n (%)
same,TEAE Severity: Grade 3,"Cohort 8, 5/8/12/12 mg SC QW",0 n (%)
same,Vomiting,"Cohort 8, 5/8/12/12 mg SC QW",2 (33.3) n (%)
same,Vomiting Grade 1,"Cohort 8, 5/8/12/12 mg SC QW",2 (33.3) n (%)
same,Vomiting Grade 2,"Cohort 8, 5/8/12/12 mg SC QW",1 (16.7) n (%)
same,Vomiting Grade 3,"Cohort 8, 5/8/12/12 mg SC QW",0 n (%)
same,tolerability,"MAD cohorts, 5 mg up-titrated to 12 mg SC QW over 4 weeks",generally well tolerated; also recorded: generally well-tolerated; also recorded: favorable tolerability profile
